In patent US20240279201A1, “DUAL WNT SIGNALING PATHWAY INHIBITORS AND AMPK ACTIVATORS FOR TREATMENTS OF DISEASE” (priority 2021, published 2024):

How the values were obtained:
[1] = tested on: Wnt/β-Catenin signaling pathway; experiment: Wnt signaling luciferase (TOPflash) reporter gene assay; format: cell-based; details: for IC50: luciferase reporter gene assay, mean of three independent experiments, read-out: IC50 (nM) to inhibit the Wnt signaling activity
Text: A dual-luciferase gene reporter assay was used to test inhibitory activities of new compounds on Wnt signaling. […] Therefore, the effects of new compounds on AMPK was examined. […]

[2] = Cytotoxicity (CC50) during the luciferase gene reporter assay; format: cell-based; details: human, HEK293 cells; short treatment duration of the luciferase gene reporter assay

Row | IC50 [1] [nM] | inhibitory activity in the reporter assay ([1]; biotinylated analogs) | Compound | inhibition at 1 µM [1] [%] | CC50 [2] [µM]
1 | > 1000 | – | Cc1ccccc1-n1nnc(C(=O)Nc2nc(-c3ccccc3)c(-c3ccccc3)s2)c1C [YA4133, N-(4,5-Diphenylthiazol-2-yl)-5-methyl-1-(o-tolyl)-1H-1,2,3-triazole-4-carboxamide] | 49 | > 92
2 | > 1000 | – | Cc1ccccc1-n1nnc(C(=O)Nc2nc3ccc(Br)cc3s2)c1C [YA4059, N-(6-Bromobenzo[d]thiazol-2-yl)-5-methyl-1-(o-tolyl)-1H-1,2,3-triazole-4-carboxamide] | 31 | > 92
3 | 0.46 | – | Cc1c(C(=O)Nc2nc3ccccc3s2)nnn1-c1ccccc1F [YA4029, N-(benzo[d]thiazol-2-yl)-1-(2-fluorophenyl)-5-methyl-1H-1,2,3-triazole-4-carboxamide] | 100 | > 92
4 | 35 | – | Cc1cccc(Cl)c1-n1nnc(C(=O)Nc2nc3ccccc3s2)c1C [YA1068, N-(Benzo[d]thiazol-2-yl)-1-(2-chloro-6-methylphenyl)-5-methyl-1H-1,2,3-triazole-4-carboxamide] | 80 | > 92
5 | 16 | – | Cc1ccccc1-n1nnc(C(=O)Nc2nc3cc(F)ccc3s2)c1C [YA4101, N-(5-Fluorobenzo[d]thiazol-2-yl)-5-methyl-1-(o-tolyl)-1H-1,2,3-triazole-4-carboxamide] | – | > 92
6 | 6.7 | – | CCc1ccccc1-n1ncc(C(=O)Nc2nc3ccccc3s2)c1C [YA4009, N-(Benzo[d]thiazol-2-yl)-1-(2-ethylphenyl)-5-methyl-1H-pyrazole-4-carboxamide] | – | > 92
7 | 5.8 | – | Cc1c(C(=O)Nc2nc3ccccc3s2)cnn1-c1ccccc1Br [YA4033, N-(Benzo[d]thiazol-2-yl)-1-(2-bromophenyl)-5-methyl-1H-pyrazole-4-carboxamide] | – | > 92
8 | 1.8 | – | COc1ccccc1-n1nnc(C(=O)Nc2cnc3ccccc3n2)c1C [YA6136, 1-(2-Methoxyphenyl)-5-methyl-N-(quinoxalin-2-yl)-1H-1,2,3-triazole-4-carboxamide] | – | > 92
9 | – | maintained inhibitory activities | Cc1ccccc1-n1nnc(C(=O)Nc2ccc3cc(CN4CCN(C(=O)CCOCCOCCOCCOCCNC(=O)CCCC[C@@H]5SC[C@@H]6NC(=O)N[C@@H]65)CC4)ccc3n2)c1C [YA6023] | – | –
10 | > 1000 | – | CC(C)(C)c1c(C(=O)Nc2nc3ccc(F)cc3s2)nnn1-c1ccccc1F [YA6174, 5-(Tert-butyl)-N-(6-fluorobenzo[d]thiazol-2-yl)-1-(2-fluorophenyl)-1H-1,2,3-triazole-4-carboxamide] | 40 | > 92
11 | 251 | – | CC(C)(C)c1c(C(=O)Nc2nc3ccccc3s2)nnn1-c1ccccc1F [YA6176, N-(Benzo[d]thiazol-2-yl)-5-(tert-butyl)-1-(2-fluorophenyl)-1H-1,2,3-triazole-4-carboxamide] | 58 | > 92
12 | 8.2 | – | Cc1c(C(=O)Nc2nc3ccccc3s2)cnn1-c1ccccc1 [YA4011, N-(Benzo[d]thiazol-2-yl)-5-methyl-1-phenyl-1H-pyrazole-4-carboxamide] | – | > 92
13 | > 1000 | – | Cc1ccccc1-n1nnc(C(=O)Nc2ccc3cnccc3c2)c1C [YA61692, N-(Isoquinolin-6-yl)-5-methyl-1-(o-tolyl)-1H-1,2,3-triazole-4-carboxamide] | – | > 92
14 | > 1000 | – | O=C(Nc1ccc2ccccc2n1)c1nnn(-c2ccccc2F)n1 [YA70032, 2-(2-Fluorophenyl)-N-(quinolin-2-yl)-2H-tetrazole-5-carboxamide] | – | > 92
15 | > 1000 | – | Cc1ccccc1-n1nnc(C(=O)Nc2nc3ccc(C(F)(F)F)cc3s2)c1C [YA4063, 5-Methyl-1-(o-tolyl)-N-(6-(trifluoromethyl)benzo[d]thiazol-2-yl)-1H-1,2,3-triazole-4-carboxamide] | 24 | > 92
16 | > 1000 | – | Cc1ccccc1-n1nnc(C(=O)Nc2ccc3ncccc3c2)c1C [YA6056, 5-Methyl-N-(quinolin-6-yl)-1-(o-tolyl)-1H-1,2,3-triazole-4-carboxamide] | – | > 92
17 | 148 | – | Cc1ccccc1-n1nnc(C(=O)Nc2ccc3cc(B4OC(C)(C)C(C)(C)O4)ccc3n2)c1C [YA6063] | – | > 92
18 | 17 | – | Cc1ccc(-n2nnc(C(=O)Nc3nc4ccccc4s3)c2C)c(C)c1 [YA4039] | 88 | > 92
19 | > 1000 | – | Cc1ccccc1-n1ncc(C(=O)Nc2ccc(-c3ccccc3)cn2)c1C [YA7018, 5-Methyl-N-(5-phenylpyridin-2-yl)-1-(o-tolyl)-1H-pyrazole-4-carboxamide] | – | > 92
20 | > 1000 | – | Cc1ccccc1-n1nnc(C(=O)Nc2nc3c(F)cccc3s2)c1C [YA4093, N-(4-Fluorobenzo[d]thiazol-2-yl)-5-methyl-1-(o-tolyl)-1H-1,2,3-triazole-4-carboxamide] | 37 | > 92

Row | IC50 [1] [nM] | inhibitory activity in the reporter assay ([1]; biotinylated analogs) | Compound | inhibition at 1 µM [1] [%] | CC50 [2] [µM]
21 | > 1000 | – | Cc1c(C(=O)Nc2nc3ccccc3s2)nnn1-c1ccc(Cl)cc1 [YA1074, N-(Benzo[d]thiazol-2-yl)-1-(4-chlorophenyl)-5-methyl-1H-1,2,3-triazole-4-carboxamide] | 18 | > 92
22 | > 1000 | – | Cc1ccccc1-n1nnc(C(=O)Nc2cccc3cccnc23)c1C [YA6055, 5-Methyl-N-(quinolin-8-yl)-1-(o-tolyl)-1H-1,2,3-triazole-4-carboxamide] | – | > 92
23 | > 1000 | – | Cc1ccccc1-n1nnc(C(=O)Nc2cnc3ccccc3c2)c1C [YA6161, 5-Methyl-N-(quinolin-3-yl)-1-(o-tolyl)-1H-1,2,3-triazole-4-carboxamide] | – | > 92
24 | 4 | – | Cc1ccccc1-n1nnc(C(=O)Nc2nc3ccc(F)cc3s2)c1C [YA4103, N-(6-Fluorobenzo[d]thiazol-2-yl)-5-methyl-1-(o-tolyl)-1H-1,2,3-triazole-4-carboxamide] | – | > 92
25 | > 1000 | – | Cc1c(C(=O)Nc2nc3ccccc3s2)nnn1-c1ccc(F)cc1 [YA1076, N-(Benzo[d]thiazol-2-yl)-1-(4-fluorophenyl)-5-methyl-1H-1,2,3-triazole-4-carboxamide] | 15 | > 92
26 | 0.9 | – | Cc1c(C(=O)Nc2nc3ccccc3s2)cnn1-c1c(F)cccc1F [YA4019, N-(benzo[d]thiazol-2-yl)-1-(2,6-difluorophenyl)-5-methyl-1H-pyrazole-4-carboxamide] | – | > 92
27 | > 1000 | – | Cc1ccccc1-n1nnc(C(=O)Nc2ccc3cccc(Br)c3n2)c1C [YA6146, N-(8-Bromoquinolin-2-yl)-5-methyl-1-(o-tolyl)-1H-1,2,3-triazole-4-carboxamide] | – | > 92
28 | > 1000 | – | Cc1ccccc1-n1cc(C(=O)Nc2ccc3ccccc3n2)nn1 [YA70131, N-(Quinolin-2-yl)-1-(o-tolyl)-1H-1,2,3-triazole-4-carboxamide] | – | > 92
29 | 7.82 | – | Cc1c(C(=O)Nc2nc3ccccc3s2)nnn1-c1ccccc1 [YA6029, N-(Benzo[d]thiazol-2-yl)-5-methyl-1-phenyl-1H-1,2,3-triazole-4-carboxamide] | 81 | > 92
30 | > 1000 | – | Cc1c(C(=O)Nc2nc(-c3ccccc3)cs2)cnn1-c1ccccc1Br [YA4087, 1-(2-Bromophenyl)-5-methyl-N-(4-phenylthiazol-2-yl)-1H-pyrazole-4-carboxamide] | – | > 92
31 | 0.4 | – | Cc1c(C(=O)Nc2nc3ccccc3s2)cnn1-c1ccccc1Cl [YA4025, N-(Benzo[d]thiazol-2-yl)-1-(2-chlorophenyl)-5-methyl-1H-pyrazole-4-carboxamide] | – | > 92
32 | 0.8 | – | Cc1c(C(=O)Nc2nc3ccccc3s2)nnn1-c1ccccc1Cl [YA6027, N-(Benzo[d]thiazol-2-yl)-1-(2-chlorophenyl)-5-methyl-1H-1,2,3-triazole-4-carboxamide] | 98 | > 92
33 | 599 | – | Cc1cc(/C=C/c2ccc3cc(N(C)C)ccc3[n+]2C)c(C)n1-c1ccccc1 [Pyrvinium, reference compound] | 69 | –
34 | > 1000 | – | CC(C)c1c(C(=O)Nc2nc3ccccc3s2)cnn1-c1ccccc1 [YA6144, N-(Benzo[d]thiazol-2-yl)-5-isopropyl-1-phenyl-1H-pyrazole-4-carboxamide] | – | > 92
35 | 9.5 | – | COc1ccccc1-n1ncc(C(=O)Nc2nc3ccccc3s2)c1C [YA7020, N-(Benzo[d]thiazol-2-yl)-1-(2-methoxyphenyl)-5-methyl-1H-pyrazole-4-carboxamide] | – | > 92
36 | > 1000 | – | Cc1ccccc1-n1nnc(C(=O)Nc2ccc3ccc(Br)cc3n2)c1C [YA1126, N-(7-Bromoquinolin-2-yl)-5-methyl-1-(o-tolyl)-1H-1,2,3-triazole-4-carboxamide] | – | > 92
37 | 67 | – | Cc1ccccc1-n1nnc(C(=O)Nc2nc3ccc(Cl)cc3s2)c1C [YA4071, N-(6-Chlorobenzo[d]thiazol-2-yl)-5-methyl-1-(o-tolyl)-1H-1,2,3-triazole-4-carboxamide] | – | > 92
38 | > 1000 | – | COc1ccc2sc(NC(=O)c3nnn(-c4ccccc4C)c3C)nc2c1 [YA4045, N-(5-Methoxybenzo[d]thiazol-2-yl)-5-methyl-1-(o-tolyl)-1H-1,2,3-triazole-4-carboxamide] | – | > 92
39 | – | – | O=C(Nc1nc2ccccc2s1)c1cnn(-c2ccccc2)c1 [YA6149, N-(Benzo[d]thiazol-2-yl)-1-phenyl-1H-pyrazole-4-carboxamide] | – | > 92
40 | – | – | Cc1c(C(=O)Nc2nc3ccccc3s2)nnn1-c1cccc(Cl)c1 [YA4055, N-(Benzo[d]thiazol-2-yl)-1-(3-chlorophenyl)-5-methyl-1H-1,2,3-triazole-4-carboxamide] | – | > 92
